Reference: patent US12570655B2, “Cysteine covalent modifiers of AKT1 and uses thereof” (Terremoto Biosciences, Inc., priority 2023, dated 2026)
Where two headings read alike, the source gives them in different places.

What was measured:
Type in all cases: cell-based
AKT1 E17K = molecular target: T1, AKT1 E17K (Homo sapiens, UniProt P31749, E17K); experiment: Live cell AKT1 E17K target engagement by NanoBRET competitive probe displacement; details: HEK293 cells transfected with kinase-NanoLuciferase fusion, 2 h at 37° C.
T1 construct: expressed in transfected cells; host or cells: HEK293
T1 sequence (P31749 whole entry E17K, the tested form may be a part): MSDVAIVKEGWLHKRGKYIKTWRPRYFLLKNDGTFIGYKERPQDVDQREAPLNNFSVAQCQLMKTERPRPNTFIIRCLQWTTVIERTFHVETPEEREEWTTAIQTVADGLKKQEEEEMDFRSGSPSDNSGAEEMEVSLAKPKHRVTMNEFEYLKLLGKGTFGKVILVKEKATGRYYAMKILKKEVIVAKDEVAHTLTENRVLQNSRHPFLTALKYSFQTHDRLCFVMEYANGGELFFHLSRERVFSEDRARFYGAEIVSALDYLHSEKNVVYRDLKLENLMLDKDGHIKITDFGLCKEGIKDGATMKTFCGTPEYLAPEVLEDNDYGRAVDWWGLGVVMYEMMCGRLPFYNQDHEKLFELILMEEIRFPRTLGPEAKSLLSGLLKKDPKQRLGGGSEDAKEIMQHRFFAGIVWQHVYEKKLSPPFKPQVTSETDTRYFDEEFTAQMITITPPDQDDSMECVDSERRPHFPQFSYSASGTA
Outline: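 IC50 reflects displacement of a fluorescent ATP-competitive tracer, dosed near its EC50, from kinase–NanoLuciferase fusions in live HEK293 cells. Cells were incubated with compound and tracer for 2 h at 37 °C, then E600/E460 BRET was read.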

AKT2 = molecular target: T2, AKT2 (Homo sapiens, UniProt P31751); experiment: Live cell AKT2 target engagement by NanoBRET competitive probe displacement; details: HEK293 cells transfected with kinase-NanoLuciferase fusion, 2 h at 37° C.
T2 construct: expressed in transfected cells; host or cells: HEK293
T2 sequence (P31751 whole entry, the tested form may be a part): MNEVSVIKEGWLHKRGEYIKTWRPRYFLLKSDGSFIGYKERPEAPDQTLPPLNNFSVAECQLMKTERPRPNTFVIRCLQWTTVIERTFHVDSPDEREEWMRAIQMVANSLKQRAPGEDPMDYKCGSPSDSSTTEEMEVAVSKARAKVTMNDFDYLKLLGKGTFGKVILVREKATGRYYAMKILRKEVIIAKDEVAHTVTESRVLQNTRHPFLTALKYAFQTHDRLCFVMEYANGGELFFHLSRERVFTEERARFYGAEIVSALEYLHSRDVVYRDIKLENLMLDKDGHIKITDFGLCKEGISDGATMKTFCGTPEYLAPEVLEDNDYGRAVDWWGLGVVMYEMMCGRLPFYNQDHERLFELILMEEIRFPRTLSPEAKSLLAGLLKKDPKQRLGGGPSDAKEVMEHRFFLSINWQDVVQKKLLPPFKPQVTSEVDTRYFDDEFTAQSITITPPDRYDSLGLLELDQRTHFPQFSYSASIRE
Description: (§1) Determining Live Cell AKT1 E17K, AKT1 WT, and AKT2 Target Engagement by NanoBRET Competitive Probe Displacement.
(§2) Live cell target engagement assays were performed as described (Vasta, J. D. et al. Cell Chem Biol 2018, 25(11), 206-214). Briefly, HEK293 cells were transfected with plasmids encoding kinase-NanoLuciferase fusion proteins overnight. Cells were then treated with serial dilutions of compound and an ˜EC50 concentration of fluorescently-tagged ATP-competitive tracer (Promega). After incubation for 2 h at 37° C., luciferase substrate and extracellular luciferase inhibitor were added to all wells, and luminescent intensity at 460 nm and 600 nm were measured on a multimode plate-reader. The ratio of E600/E460 was calculated to give the tracer engagement signal (BRET). IC50 values were calculated by fitting BRET values to a log(inhibitor) vs. response Hill equation.

AKT1 WT = molecular target: T3, AKT1 WT (Homo sapiens, UniProt P31749); experiment: Live cell AKT1 WT target engagement by NanoBRET competitive probe displacement; details: HEK293 cells transfected with kinase-NanoLuciferase fusion, 2 h at 37° C.
T3 construct: expressed in transfected cells; host or cells: HEK293
T3 sequence (P31749 whole entry, the tested form may be a part): as the sequence (P31749 whole entry E17K, the tested form may be a part) above, with K17E counted along it
Description: as §1, §2

[1] = system: LAPC4 prostate cancer cells; experiment: Antiproliferative effects in LAPC4 cells (CellTiter Glo); details: LAPC4 cells (AKT1 E17K allele), read-out: LAPC4 proliferation IC50
Outline: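 Seed 1,000 cells/well in IMDM/12% FBS/1% P/S; add compound dilutions (DMSO); incubate 72 h; read intracellular ATP with CellTiter Glo; fit luminescence to log(inhibitor)-response Hill curve for IC50.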

Compound | IC50 (AKT1 E17K) [µM] | IC50 (AKT2) [µM] | IC50 (AKT1 WT) [µM] | IC50 ([1]; Homo sapiens, LAPC4, 72 h) [µM] | IC50 ([1]; 72 h) [µM]
C=CC(=O)N1CC2COCC(C1)C2N[C@H]1CCc2cc(-n3c(-c4cccnc4N)nc4ccc(-n5cccn5)nc43)ccc21 (mixture of isomers) [Example 64, 1-(9-(((S)-5-(2-(2-aminopyridin-3-yl)-5-(1H-pyrazol-1-yl)-3H-imidazo[4,5-b]pyridin-3-yl)-2,3-dihydro-1H-inden-1-yl)amino)-3-oxa-7-azabicyclo[3.3.1]nonan-7-yl)prop-2-en-1-one] | 0.0533 | 0.158 | 0.02 | 0.145 | –
C=CC(=O)N1CCC(N[C@@H]2c3ccc(-n4c(-c5ccccc5F)nc5ccc(-n6cccn6)nc54)cc3CC2F)C[C@H]1C (single isomer, unassigned) [Example 319, 1-((2R,4*)-4-(((1R,2*)-2-fluoro-5-(2-(2-fluorophenyl)-5-(1H-pyrazol-1-yl)-3H-imidazo[4,5-b]pyridin-3-yl)-2,3-dihydro-1H-inden-1-yl)amino)-2-methylpiperidin-1-yl)prop-2-en-1-one] | 0.0496 | 0.301 | – | – | 1.6
C=CC(=O)N1CCC(N[C@@H]2c3ccc(-n4c(-c5ccccc5)nc5ccc(-c6ccccc6)nc54)cc3CC2F)CC1 (single isomer, unassigned) [Example 324, 1-(4-{[(1R,2*)-5-{2,5-diphenylimidazo[4,5-b]pyridin-3-yl}-2-fluoro-2,3-dihydro-1H-inden-1-yl]amino}piperidin-1-yl)prop-2-en-1-one] | 0.0163 | 0.0881 | 0.396 | – | –
C=CC(=O)N1CCC(N[C@@H]2c3ccc(-n4c(-c5ccccc5)nc5ccc(-c6ccccc6)nc54)cc3CC2F)CC1 (single isomer, unassigned) [Example 325, 1-(4-{[(1R,2*)-5-{2,5-diphenylimidazo[4,5-b]pyridin-3-yl}-2-fluoro-2,3-dihydro-1H-inden-1-yl]amino}piperidin-1-yl)prop-2-en-1-one] | 0.00792 | 0.101 | 0.298 | – | –
C=CC(=O)N1CCC(N[C@H]2CCc3cc(-n4c(-c5cccnc5N)nc5ccc(-n6cccn6)nc54)ccc32)CC1CC#N (single isomer, unassigned) [Example 326, 2-((2*,4*)-1-acryloyl-4-(((S)-5-(2-(2-aminopyridin-3-yl)-5-(1H-pyrazol-1-yl)-3H-imidazo[4,5-b]pyridin-3-yl)-2,3-dihydro-1H-inden-1-yl)amino)piperidin-2-yl)acetonitrile] | 0.00725 | 0.0293 | 0.0988 | – | –
C=CC(=O)N1CCC(N[C@H]2CCc3cc(-n4c(-c5cccnc5N)nc5ccc(-n6cccn6)nc54)ccc32)CC1CC#N (single isomer, unassigned) [Example 327, 2-((2*,4*)-1-acryloyl-4-(((S)-5-(2-(2-aminopyridin-3-yl)-5-(1H-pyrazol-1-yl)-3H-imidazo[4,5-b]pyridin-3-yl)-2,3-dihydro-1H-inden-1-yl)amino)piperidin-2-yl)acetonitrile] | 0.0252 | 0.0994 | 0.204 | – | –
C=CC(=O)N1CCC(N[C@@H]2c3ccc(-n4c(-c5ccccc5)nc5ccc(-n6cccn6)nc54)cc3CC2F)CC1C(F)F (single isomer, unassigned) [Example 329, 1-((2*,4*)-2-(difluoromethyl)-4-(((1R,2*)-2-fluoro-5-(2-phenyl-5-(1H-pyrazol-1-yl)-3H-imidazo[4,5-b]pyridin-3-yl)-2,3-dihydro-1H-inden-1-yl)amino)piperidin-1-yl)prop-2-en-1-one] | 0.00537 | 0.0179 | 0.156 | – | –
C=CC(=O)N1CCC(N[C@@H]2c3ccc(-n4c(-c5ccccc5)nc5ccc(-n6cccn6)nc54)cc3CC2F)CC1C(F)F (single isomer, unassigned) [Example 330, 1-((2*,4*)-2-(difluoromethyl)-4-(((1R,2*)-2-fluoro-5-(2-phenyl-5-(1H-pyrazol-1-yl)-3H-imidazo[4,5-b]pyridin-3-yl)-2,3-dihydro-1H-inden-1-yl)amino)piperidin-1-yl)prop-2-en-1-one] | 0.031 | 0.0693 | 1.48 | – | –
C=CC(=O)N1CCC(N[C@@H]2c3ccc(-n4c(-c5ccccc5)nc5ccc(-n6cccn6)nc54)cc3CC2F)CC1C(F)F (single isomer, unassigned) [Example 331, 1-((2*,4*)-2-(difluoromethyl)-4-(((1R,2*)-2-fluoro-5-(2-phenyl-5-(1H-pyrazol-1-yl)-3H-imidazo[4,5-b]pyridin-3-yl)-2,3-dihydro-1H-inden-1-yl)amino)piperidin-1-yl)prop-2-en-1-one] | 0.0181 | 0.128 | 0.807 | – | –
C=CC(=O)N1CCC(N[C@@H]2c3ccc(-n4c(-c5cccnc5N)nc5ccc(-n6ccc(C7CC7)n6)nc54)cc3CC2F)CC1C(F)F (single isomer, unassigned) [Example 334, 1-((2*,4*)-4-(((1*,2*)-5-(2-(2-aminopyridin-3-yl)-5-(3-cyclopropyl-1H-pyrazol-1-yl)-3H-imidazo[4,5-b]pyridin-3-yl)-2-fluoro-2,3-dihydro-1H-inden-1-yl)amino)-2-(difluoromethyl)piperidin-1-yl)prop-2-en-1-one] | 0.00675 | 0.0235 | 0.137 | – | –
C=CC(=O)N1CCC(NC2c3ccc(-n4c(-c5cccnc5N)nc5ccc(-n6ccc(C7CC7)n6)nc54)cc3CC2F)CC1C(F)F (single isomer, unassigned) [Example 335, 1-((2*,4*)-4-(((1*,2*)-5-(2-(2-aminopyridin-3-yl)-5-(3-cyclopropyl-1H-pyrazol-1-yl)-3H-imidazo[4,5-b]pyridin-3-yl)-2-fluoro-2,3-dihydro-1H-inden-1-yl)amino)-2-(difluoromethyl)piperidin-1-yl)prop-2-en-1-one] | 0.00948 | 0.0283 | 0.288 | – | –
C=CC(=O)N1CCC(NC2c3ccc(-n4c(-c5cccnc5N)nc5ccc(-n6ccc(C7CC7)n6)nc54)cc3CC2F)CC1C(F)F (single isomer, unassigned) [Example 336, 1-((2*,4*)-4-(((1*,2*)-5-(2-(2-aminopyridin-3-yl)-5-(3-cyclopropyl-1H-pyrazol-1-yl)-3H-imidazo[4,5-b]pyridin-3-yl)-2-fluoro-2,3-dihydro-1H-inden-1-yl)amino)-2-(difluoromethyl)piperidin-1-yl)prop-2-en-1-one] | 0.0164 | 0.0254 | 0.523 | – | –
C=CC(=O)N1CCC(CC2CCc3cc(-n4c(-c5cccnc5N)nc5ccc(-n6cccn6)nc54)ccc32)CC1 (single isomer, unassigned) [Example 343, 1-(4-(((*)-5-(2-(2-aminopyridin-3-yl)-5-(1H-pyrazol-1-yl)-3H-imidazo[4,5-b]pyridin-3-yl)-2,3-dihydro-1H-inden-1-yl)methyl)piperidin-1-yl)prop-2-en-1-one] | 0.00665 | 0.0159 | 0.0861 | – | –
C=CC(=O)N1CCC(CC2CCc3cc(-n4c(-c5cccnc5N)nc5ccc(-n6cccn6)nc54)ccc32)CC1 (single isomer, unassigned) [Example 344, 1-(4-(((*)-5-(2-(2-aminopyridin-3-yl)-5-(1H-pyrazol-1-yl)-3H-imidazo[4,5-b]pyridin-3-yl)-2,3-dihydro-1H-inden-1-yl)methyl)piperidin-1-yl)prop-2-en-1-one] | 0.0214 | 0.549 | 0.418 | – | –
C=C(F)C(=O)N1CCC(N[C@H]2CCc3cc(-n4c(-c5cccnc5N)nc5ccc(-n6cccn6)nc54)ccc32)CC1 [Example 46, 1-(4-{[(1S)-5-[2-(2-aminopyridin-3-yl)-5-(pyrazol-1-yl)imidazo[4,5-b]pyridin-3-yl]-2,3-dihydro-1H-inden-1-yl]amino}piperidin-1-yl)-2-fluoroprop-2-en-1-one] | – | > 10 | 0.726 | – | –
C=CC(=O)N1CCC(N[C@H]2CCc3cc(-n4c(-c5cccnc5N)nc5ccc(-n6ccc(C7(F)CC7)n6)nc54)ccc32)CC1 [Example 323, 1-(4-{[(1S)-5-[2-(2-aminopyridin-3-yl)-5-[3-(1-fluorocyclopropyl)pyrazol-1-yl]imidazo[4,5-b]pyridin-3-yl]-2,3-dihydro-1H-inden-1-yl]amino}piperidin-1-yl)prop-2-en-1-one] | 0.00622 | 0.0453 | 0.263 | – | –
C=CC(=O)N1C[C@@H]2[C@H](C1)[C@@H]2NC1CCc2cc(-n3c(-c4cccnc4N)nc4ccc(-n5cccn5)nc43)ccc21 (stereo partly drawn) [Example 345, 1-[(1R,5S,6R)-6-({5-[2-(2-aminopyridin-3-yl)-5-(pyrazol-1-yl)imidazo[4,5-b]pyridin-3-yl]-2,3-dihydro-1H-inden-1-yl}amino)-3-azabicyclo[3.1.0]hexan-3-yl]prop-2-en-1-one] | 0.034 | 0.0635 | 0.268 | – | –
